Each structure is given as a SMILES string.

This note sets out measurements from patent publication US20260152487A1 (Sitryx Therapeutics Limited, priority 2021, published 2026).

The target of one assay is T1, recombinant human PKM2 (Homo sapiens, UniProt P14618).
T1 construct: His (N); purchased R&D Systems
The experiment in a line: Human PKM2 activation assay (Kinase-Glo Plus luminescent detection of generated ATP). As to conditions: for Emax: percentage activation normalised to DMSO vehicle (LOW) and 5 μM TEPP-46 (HIGH), read-out: hPKM2 Emax; for EC50: recombinant human PKM2 activation, 4-parameter logistic fit, read-out: hPKM2 EC50. The format is biochemical. In a few lines:
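Luminescent ATP detection (Kinase-Glo Plus, 15 min, 26 °C) followed a 60 min, 26 °C shaken reaction of compound with […] His-tagged human PKM2, PEP and ADP in imidazole/KCl/MgCl2 buffer with Tween20 and BSA, pH 7.2.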
In general terms: In Kinase-Glo more light means more ATP remaining.

In the next assay the test system is A549 cells. Put plainly: A549 cell proliferation in low-serine medium (CellTiter-Glo 2.0 viable cell number). The format is cell-based. As to conditions: Homo sapiens, 72 h, 3 days, Assay Medium with 20 μM L-serine. How it is done: The effect of compounds of Formula (Ia) on A549 cell proliferation in low-serine medium was assessed using a luminescence assay of viable cell number (CellTiter-Glo® 2.0, Promega) duplexed with a fluorescent cytotoxicity assessment (CelITox™ Green, Promega). Cell culture reagents were from ThermoFisher unless specified otherwise. Assay reagents were from Sigma-Aldrich unless specified otherwise. Test Compounds were prepared as 10 mM DMSO stocks and dilution series prepared in DMSO for direct dilution into culture medium.
Cells were passaged every 3-4 days at 80-90% confluence. The cell monolayer was washed twice with room-temperature Ca^2+/Mg-free PBS and 4 ml room-temperature trypsin-EDTA added to the flask. After 5 minutes' incubation (37° C., 5% CO2) to detach cells, trypsin was quenched with 13 ml warmed complete growth medium and the cells harvested and diluted to 2.4×10^4 cells/ml for dispensing into 384-well clear-bottom black-walled plates (600 cells/well).
Following overnight incubation, growth medium was aspirated from each well and the cells washed twice with Assay Medium comprising Basal Medium Eagle supplemented with 3% heat-inactivated dialysed FBS plus 2 mM L-glutamine plus 20 μM L-serine (Sigma-Aldrich). After aspiration of the final wash medium, Assay Medium containing Test Compound was added to each well. DMSO vehicle controls were included on each plate.
Cells were incubated for 3 days in a humidified incubator (37° C., 5% CO2) at which point CelITox™ Green and CellTiter-Glo® reagents were prepared according to the manufacturer's instructions. Triton-X was added to HIGH wells for cytotoxicity determination and the plate incubated for 30 minutes (20° C., ambient humidity and pCO2). CelITox™ Green reagent was added to each well and the plate covered, placed on an orbital shaker @450 rpm for 2 minutes, and incubated in the dark for 15 minutes (20° C., ambient humidity and pCO2). Endpoint fluorescence was measured using a plate reader (PHERAstar® FSX, BMG Labtech).
Following cytotoxicity determination, CellTiter-Glo® reagent was added to each well and the plate placed on an orbital shaker @450 rpm for 2 minutes to lyse cells. Plates were incubated in the dark for 15-30 minutes (20° C., ambient humidity and pCO2) prior to endpoint luminescence measurement (PHERAstar® FSX, BMG Labtech).
Proliferation was calculated by normalizing luminescence signals to LOW controls obtained from a parallel plate processed at the time of Test Compound challenge and HIGH (DMSO vehicle) wells from the compound plate. IC50 values were determined from a 4-parameter logistic fit of compound concentration-response curves.
For orientation: In ATP-based viability assays light output follows the ATP content of the culture.

T1 sequence (P14618 2-531 limits assumed): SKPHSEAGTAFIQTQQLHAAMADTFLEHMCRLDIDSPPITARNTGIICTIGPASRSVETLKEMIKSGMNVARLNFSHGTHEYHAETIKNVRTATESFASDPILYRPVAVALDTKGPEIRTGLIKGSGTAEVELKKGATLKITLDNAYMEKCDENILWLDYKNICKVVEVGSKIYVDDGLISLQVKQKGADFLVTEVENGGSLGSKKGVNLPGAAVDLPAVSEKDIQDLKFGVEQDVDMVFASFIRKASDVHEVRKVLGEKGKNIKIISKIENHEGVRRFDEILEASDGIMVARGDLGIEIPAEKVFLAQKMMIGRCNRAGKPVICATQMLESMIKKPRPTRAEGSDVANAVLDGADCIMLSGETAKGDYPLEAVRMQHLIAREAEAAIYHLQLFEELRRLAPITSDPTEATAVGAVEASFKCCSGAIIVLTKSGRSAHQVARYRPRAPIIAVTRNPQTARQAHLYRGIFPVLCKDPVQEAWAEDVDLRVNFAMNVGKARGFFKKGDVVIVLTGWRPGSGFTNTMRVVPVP

Usually Emax stands for the greatest response seen or fitted, relative to the assay's reference. The term EC50 denotes the concentration at which the effect is half-maximal. The term IC50 denotes the concentration that inhibits the measured activity by half. A high value points to weaker potency. In the case of `COc1ccc(F)c(Cn2ncc3cc(S(=O)(=O)c4ccccc4)ccc3c2=O)c1` [Example 33, 2-(2-fluoro-5-methoxybenzyl)-6-(phenylsulfonyl)phthalazin-1(2H)-one], at recombinant human PKM2, the Emax amounted to 105% and the EC50 worked out at 63.3 nM. In addition, in the assay on A549 cells, half-maximal inhibition (IC50) was put at 1.7 nM.
For the molecule `O=c1c2ccc(S(=O)(=O)c3ccccc3)cc2cnn1Cc1cccc2nccn12` [Example 34, 2-(imidazo[1,2-a]pyridin-5-ylmethyl)-6-(phenylsulfonyl)phthalazin-1(2H)-one], on recombinant human PKM2, the Emax is 79% and the EC50 was 506 nM. In addition, the midpoint of inhibition with A549 cells, the IC50, lay at 64.8 nM.
On the same counts, the results for `CC1(C)Cc2cc(Cn3ncc4cc(S(=O)(=O)c5ccccc5)ccc4c3=O)ccc2O1` [Example 35, 2-((2,2-dimethyl-2,3-dihydrobenzofuran-5-yl)methyl)-6-(phenylsulfonyl)phthalazin-1(2H)-one] are 110%, 183 nM and 10.4 nM.
Regarding `Cn1ncc2cc(Cn3ncc4cc(S(=O)(=O)c5ccccc5)ccc4c3=O)ccc21` [Example 36, 2-((1-methyl-1H-indazol-5-yl)methyl)-6-(phenylsulfonyl)phthalazin-1(2H)-], on recombinant human PKM2, the Emax came out at 70% and the EC50 turned out to be 207 nM. Moreover, the IC50 with A549 cells was found to be 20.6 nM.
On the same counts, the results for `COc1cccc(Cn2ncc3cc(S(=O)(=O)c4ccccc4)ccc3c2=O)n1` [Example 37, 2-((6-methoxypyridin-2-yl)methyl)-6-(phenylsulfonyl)phthalazin-1(2H)-one] are 118%, 133 nM and 3.6 nM.
On the same counts, the results for `Cn1ncc2ccc(Cn3ncc4cc(S(=O)(=O)c5ccccc5)ccc4c3=O)cc21` [Example 39, 2-((1-methyl-1H-indazol-6-yl)methyl)-6-(phenylsulfonyl)phthalazin-1(2H)-one] are 71.9%, 150 nM and 7.4 nM.
The corresponding values for `COc1ccc(S(=O)(=O)c2ccc3c(=O)n(Cc4cccc(OC(F)F)c4)ncc3c2)cc1` [Example 40, 2-(3-(difluoromethoxy)benzyl)-6-((4-methoxyphenyl)sulfonyl)phthalazin-1(2H)-one] are 90%, 42.7 nM and 3.7 nM.
`COc1ccc(S(=O)(=O)c2ccc3c(=O)n(Cc4cccnc4)ncc3c2)cc1` [Example 42, 6-((4-methoxyphenyl)sulfonyl)-2-(pyridin-3-ylmethyl)phthalazin-1(2H)-one]: on recombinant human PKM2, the Emax came to 103% and the EC50 was 64.5 nM. The IC50 in the assay on A549 cells was determined as 1.5 nM.
On the same counts, the results for `COc1ccc(S(=O)(=O)c2ccc3c(=O)n(Cc4ccccc4N)ncc3c2)cc1` [Example 43, 2-(2-aminobenzyl)-6-((4-methoxyphenyl)sulfonyl)phthalazin-1(2H)-one] are 111%, 42.5 nM and 1.7 nM.
On the same counts, the results for `COc1ccc(S(=O)(=O)c2ccc3c(=O)n(CCc4ccccc4)ncc3c2)cc1` [Example 44, 6-((4-methoxyphenyl)sulfonyl)-2-phenethylphthalazin-1(2H)-one] are 63%, 367 nM and 41.8 nM.
On the same counts, the results for `COc1ccc(S(=O)(=O)c2ccc3c(=O)n(Cc4ccno4)ncc3c2)cc1` [Example 45, 2-(isoxazol-5-ylmethyl)-6-((4-methoxyphenyl)sulfonyl)phthalazin-1(2H)-one] are 83.5%, 435 nM and 26.2 nM.
With `COc1ccc(S(=O)(=O)c2ccc3c(=O)n(Cc4ccc(Cl)cc4F)ncc3c2)cc1` [Example 46, 2-(4-chloro-2-fluorobenzyl)-6-((4-methoxyphenyl)sulfonyl)phthalazin-1(2H)-one], at recombinant human PKM2, the Emax stood at 76% and the 50% effective concentration (EC50) is 234 nM. Moreover, the IC50 with A549 cells is 4.8 nM.
The corresponding values for `COc1ccc(S(=O)(=O)c2ccc3c(=O)n(Cc4ccc5c(c4)CCO5)ncc3c2)cc1` [Example 47, 2-((2,3-dihydrobenzofuran-5-yl)methyl)-6-((4-methoxyphenyl)sulfonyl)phthalazin-1(2H)-one] are 87.9%, 25.5 nM and 0.5 nM.
On to `COc1ccc(S(=O)(=O)c2ccc3c(=O)n(Cc4n[nH]c5ccccc45)ncc3c2)cc1` [Example 48, 2-((1H-indazol-3-yl)methyl)-6-((4-methoxyphenyl)sulfonyl)phthalazin-1(2H)-one], for which, on recombinant human PKM2, the maximum response (Emax) came to 85.8% and the EC50 is 55.2 nM. The molecule further gave an IC50 with A549 cells of 1.6 nM.
Regarding `COc1ccc(S(=O)(=O)c2ccc3c(=O)n(Cc4ccccc4)ncc3c2)cc1` [Example 50, 2-benzyl-6-((4-methoxyphenyl)sulfonyl)phthalazin-1(2H)-one], on recombinant human PKM2, the Emax is 97.5% and the EC50 amounted to 70.6 nM. Besides, it took 3.1 nM to reach half-maximal inhibition in the assay on A549 cells (IC50).
On the same counts, the results for `COc1ccc(S(=O)(=O)c2ccc3c(=O)n(Cc4ccc(OC)nc4)ncc3c2)cc1` [Example 51, 6-((4-methoxyphenyl)sulfonyl)-2-((6-methoxypyridin-3-yl)methyl)phthalazin-1(2H)-one] are 104%, 24.1 nM and 3.5 nM.
On the same counts, the results for `COc1ccc(S(=O)(=O)c2ccc3c(=O)n(Cc4cccc(OC)c4F)ncc3c2)cc1` [Example 52, 2-(2-fluoro-3-methoxybenzyl)-6-((4-methoxyphenyl)sulfonyl)phthalazin-1(2H)-one] are 101%, 59.7 nM and 1.9 nM.
The corresponding values for `COc1ccc(S(=O)(=O)c2ccc3c(=O)n(Cc4c(F)cc(OC)cc4F)ncc3c2)cc1` [Example 53, 2-(2,6-difluoro-4-methoxybenzyl)-6-((4-methoxyphenyl)sulfonyl)phthalazin-1(2H)-one] are 89.2%, 59.1 nM and 5.7 nM.
For `O=c1c2ccc(S(=O)(=O)c3ccccc3)cc2cnn1Cc1ccc2c(c1)OCO2` [Example 57, 2-(benzo[d][1,3]dioxol-5-ylmethyl)-6-(phenylsulfonyl)phthalazin-1(2H)-one], on recombinant human PKM2, the Emax is 109% and the EC50 is 55 nM. Besides, in the assay with A549 cells, the IC50 was determined as 2.3 nM.
On the same counts, the results for `O=c1c2ccc(S(=O)(=O)c3ccccc3)cc2cnn1Cc1ccc2cn[nH]c2c1` [Example 58, 2-((1H-indazol-6-yl)methyl)-6-(phenylsulfonyl)phthalazin-1(2H)-one] are 88.6%, 477 nM and 41.8 nM.
For the molecule `COc1ccc(Cn2ncc3cc(S(=O)(=O)c4ccccc4)ccc3c2=O)nc1` [Example 59, 2-((5-methoxypyridin-2-yl)methyl)-6-(phenylsulfonyl)phthalazin-1(2H)-one], at recombinant human PKM2, the Emax came out at 107% and the EC50 was 68.9 nM. Besides, half-maximal inhibition in the assay with A549 cells (IC50) required 3.2 nM.
On the same counts, the results for `NC(=O)Cc1ccccc1Cn1ncc2cc(S(=O)(=O)c3ccccc3)ccc2c1=O` [Example 61, 2-(2-((1-oxo-6-(phenylsulfonyl)phthalazin-2(1H)-yl)methyl)phenyl)acetamide] are 67.2%, 564 nM and 15.8 nM.
Consider `O=c1c2ccc(S(=O)(=O)c3ccccc3)cc2cnn1Cc1ccc(OC(F)F)nc1` [Example 62, 2-((6-(difluoromethoxy)pyridin-3-yl)methyl)-6-(phenylsulfonyl)phthalazin-1(2H)-one], for which, at recombinant human PKM2, the Emax was 89.5% and the EC50 is 38.7 nM. In addition, in the assay with A549 cells, the IC50 turned out to be 2.5 nM.
As to `O=c1c2ccc(S(=O)(=O)c3ccccc3)cc2cnn1Cc1ccccc1CCO` [Example 63, 2-(2-(2-hydroxyethyl)benzyl)-6-(phenylsulfonyl)phthalazin-1(2H)-one], on recombinant human PKM2, the Emax came to 101% and the EC50 was determined as 167 nM. In the assay with A549 cells, this molecule came in with an IC50 of 4.3 nM.
`CC1Cc2cc(Cn3ncc4cc(S(=O)(=O)c5ccccc5)ccc4c3=O)ccc2O1` (stereo not drawn) [Example 64, 2-((2-methyl-2,3-dihydrobenzofuran-5-yl)methyl)-6-(phenylsulfonyl)phthalazin-1(2H)-one]: on recombinant human PKM2, the Emax is 96.4% and the EC50 is 45 nM. In the assay on A549 cells, the midpoint of inhibition, the IC50, lay at 2.1 nM.
